Results from patent publication US10435405B2, “Pyrazolopyridine compounds and uses thereof” (Incyte Corporation, priority 2016, dated 2019).

Biological target: HPK1 (Homo sapiens (Human), UniProt Q92918)
Assay: HPK1 Kinase Binding Assay
Outline: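 Active HPK1 (added as 4 nM solution) was combined with compound (3-fold, 11-point series) and tracer 222 (18 nM) plus Eu-anti-GST antibody (4 nM) in 50 mM HEPES pH 7.5 with MgCl2 and DTT. After 1 h at 25 °C plates were read. Ki values were derived.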

Sequence of HPK1 (Q92918 1-346): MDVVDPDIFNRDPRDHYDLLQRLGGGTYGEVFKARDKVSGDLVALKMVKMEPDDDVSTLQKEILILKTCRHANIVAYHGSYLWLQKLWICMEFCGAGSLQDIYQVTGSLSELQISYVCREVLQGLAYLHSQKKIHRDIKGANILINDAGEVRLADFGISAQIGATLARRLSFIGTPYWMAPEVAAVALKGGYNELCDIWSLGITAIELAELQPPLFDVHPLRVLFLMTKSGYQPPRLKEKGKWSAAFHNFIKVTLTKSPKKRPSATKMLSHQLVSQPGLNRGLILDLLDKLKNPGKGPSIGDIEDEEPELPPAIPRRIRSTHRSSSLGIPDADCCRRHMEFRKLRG

Structure (SMILES)	Ki
CNCc1ccc(F)c(-c2cc3c(-c4cnn(C)c4)n[nH]c3cn2)c1C [Example 92, 1-(4-Fluoro-2-methyl-3-(3-(1-methyl-1H-pyrazol-4-yl)-1H-pyrazolo[3,4-c]pyridin-5-yl)phenyl)-N-methylmethanamine]	≤ 100 nM
Cc1c(CNC(C)C)ccc(F)c1-c1cc2c(-c3cnn(C)c3)n[nH]c2cn1 [Example 93, N-(4-Fluoro-2-methyl-3-(3-(1-methyl-1H-pyrazol-4-yl)-1H-pyrazolo[3,4-c]pyridin-5-yl)benzyl)propan-2-amine]	≤ 100 nM
Cc1c(CN2CCC2)ccc(F)c1-c1cc2c(-c3cnn(C)c3)n[nH]c2cn1 [Example 94, 5-(3-(Azetidin-1-ylmethyl)-6-fluoro-2-methylphenyl)-3-(1-methyl-1H-pyrazol-4-yl)-1H-pyrazolo[3,4-c]pyridine]	≤ 100 nM
CC(C)NC1CC(c2cc(F)c(-c3cc4c(-c5cnn(C)c5)n[nH]c4cn3)c(F)c2)C1 (centres unmarked) [Example 95, 3-(3,5-Difluoro-4-(3-(1-methyl-1H-pyrazol-4-yl)-1H-pyrazolo[3,4-c]pyridin-5-yl)phenyl)-N-isopropylcyclobutanamine]	≤ 100 nM
CNCCc1cc(F)c(-c2cc3c(-c4cnn(C)c4)n[nH]c3cn2)c(F)c1 [Example 96, 2-(3,5-Difluoro-4-(3-(1-methyl-1H-pyrazol-4-yl)-1H-pyrazolo[3,4-c]pyridin-5-yl)phenyl)-N-methylethanamine]	≤ 100 nM
CNCCc1ccc(F)c(-c2cc3c(-c4cnn(C)c4)n[nH]c3cn2)c1F [Example 97, 2-(2,4-Difluoro-3-(3-(1-methyl-1H-pyrazol-4-yl)-1H-pyrazolo[3,4-c]pyridin-5-yl)phenyl)-N-methylethanamine]	≤ 100 nM
Cn1cc(-c2n[nH]c3cnc(-c4c(F)ccc(CCNC5CCOCC5)c4F)cc23)cn1 [Example 98, N-(2,4-Difluoro-3-(3-(1-methyl-1H-pyrazol-4-yl)-1H-pyrazolo[3,4-c]pyridin-5-yl)phenethyl)tetrahydro-2H-pyran-4-amine]	≤ 100 nM
CC(C)N1CC(NCCc2cc(F)c(-c3cc4c(-c5cnn(C)c5)n[nH]c4cn3)c(F)c2)C1 [Example 99, N-(3,5-Difluoro-4-(3-(1-methyl-1H-pyrazol-4-yl)-1H-pyrazolo[3,4-c]pyridin-5-yl)phenethyl)-1-isopropylazetidin-3-amine]	≤ 100 nM
CNC(=O)c1ccc(-c2n[nH]c3cnc(-c4c(F)cccc4OC)cc23)cc1F [Example 100, 2-Fluoro-4-(5-(2-fluoro-6-methoxyphenyl)-1H-pyrazolo[3,4-c]pyridin-3-yl)-N-methylbenzamide]	≤ 100 nM
CNC(=O)c1ccc(-c2n[nH]c3cnc(-c4c(F)cccc4OC)cc23)cn1 [Example 101, 5-(5-(2-Fluoro-6-methoxyphenyl)-1H-pyrazolo[3,4-c]pyridin-3-yl)-N-methylpicolinamide]	≤ 100 nM
CNC(=O)c1ccc(-c2n[nH]c3cnc(-c4c(F)cccc4OC)cc23)cc1OC [Example 102, 4-(5-(2-Fluoro-6-methoxyphenyl)-1H-pyrazolo[3,4-c]pyridin-3-yl)-2-methoxy-N-methylbenzamide]	≤ 100 nM
CNC(=O)c1ccc(-c2n[nH]c3cnc(-c4c(F)cccc4OC)cc23)cc1C [Example 103, 4-(5-(2-Fluoro-6-methoxyphenyl)-1H-pyrazolo[3,4-c]pyridin-3-yl)-N,2-dimethylbenzamide]	≤ 100 nM
COc1cccc(F)c1-c1cc2c(-n3cnc(C(=O)NC(C)C)c3)n[nH]c2cn1 [Example 104, 1-(5-(2-Fluoro-6-methoxyphenyl)-1H-pyrazolo[3,4-c]pyridin-3-yl)-N-isopropyl-1H-imidazole-4-carboxamide]	≤ 100 nM
CNC(=O)c1cn(-c2n[nH]c3cnc(-c4c(F)cccc4OC)cc23)cn1 [Example 105, 1-(5-(2-Fluoro-6-methoxyphenyl)-1H-pyrazolo[3,4-c]pyridin-3-yl)-N-methyl-1H-imidazole-4-carboxamide]	≤ 100 nM
Cn1cc(-c2n[nH]c3cnc(-c4c(F)cc(OCC5CCN5)cc4F)cc23)cn1 (centres unmarked) [Example 106, 5-(4-(Azetidin-2-ylmethoxy)-2,6-difluorophenyl)-3-(1-methyl-1H-pyrazol-4-yl)-1H-pyrazolo[3,4-c]pyridine]	≤ 100 nM
Cn1cc(-c2n[nH]c3cnc(-c4c(F)cc(OC5CCOCC5)cc4F)cc23)cn1 [Example 107, 5-(2,6-Difluoro-4-(tetrahydro-2H-pyran-4-yloxy)phenyl)-3-(1-methyl-1H-pyrazol-4-yl)-1H-pyrazolo[3,4-c]pyridine]	≤ 100 nM
Cn1cc(-c2n[nH]c3cnc(-c4c(F)cc(OCc5ccncc5)cc4F)cc23)cn1 [Example 108, 5-(2,6-Difluoro-4-(pyridin-4-ylmethoxy)phenyl)-3-(1-methyl-1H-pyrazol-4-yl)-1H-pyrazolo[3,4-c]pyridine]	≤ 100 nM
CN(C)C(=O)Oc1cc(F)c(-c2cc3c(-c4cnn(C)c4)n[nH]c3cn2)c(F)c1 [Example 109, 3,5-Difluoro-4-(3-(1-methyl-1H-pyrazol-4-yl)-1H-pyrazolo[3,4-c]pyridin-5-yl)phenyl dimethylcarbamate]	≤ 100 nM
Cn1cc(-c2n[nH]c3cnc(-c4c(F)cc(OC(=O)N5CCOCC5)cc4F)cc23)cn1 [Example 110, 3,5-Difluoro-4-(3-(1-methyl-1H-pyrazol-4-yl)-1H-pyrazolo[3,4-c]pyridin-5-yl)phenyl morpholine-4-carboxylate]	≤ 100 nM
CNCc1ccc(-c2cc3c(-c4cnn(C)c4)n[nH]c3cn2)c(C)c1 [Example 111, N-Methyl-1-(3-methyl-4-(3-(1-methyl-1H-pyrazol-4-yl)-1H-pyrazolo[3,4-c]pyridin-5-yl)phenyl)methanamine]	≤ 100 nM
CNCc1ccc(-c2cc3c(-c4cnn(C)c4)n[nH]c3cn2)c(C(F)(F)F)c1 [Example 112, N-Methyl-1-(4-(3-(1-methyl-1H-pyrazol-4-yl)-1H-pyrazolo[3,4-c]pyridin-5-yl)-3-(trifluoromethyl)phenyl)methanamine]	≤ 100 nM
CNCc1cc(C)c(-c2cc3c(-c4ccc(N5CCC(O)C5)nc4)n[nH]c3cn2)c(F)c1 (centres unmarked) [Example 113, 1-(5-(5-(2-Fluoro-6-methyl-4-((methylamino)methyl)phenyl)-1H-pyrazolo[3,4-c]pyridin-3-yl)pyridin-2-yl)pyrrolidin-3-ol]	≤ 100 nM
CNCc1cc(C)c(-c2cc3c(-c4ccc(N5CCCC(OC)C5)nc4)n[nH]c3cn2)c(F)c1 (centres unmarked) [Example 114, 1-(3-Fluoro-4-(3-(6-(3-methoxypiperidin-1-yl)pyridin-3-yl)-1H-pyrazolo[3,4-c]pyridin-5-yl)-5-methylphenyl)-N-methylmethanamine]	≤ 100 nM
COc1cccc(F)c1-c1cc2c(-c3cccc(C4CCN(C)CC4)n3)n[nH]c2cn1 [Example 115, 5-(2-Fluoro-6-methoxyphenyl)-3-(6-(1-methylpiperidin-4-yl)pyridin-2-yl)-1H-pyrazolo[3,4-c]pyridine]	≤ 100 nM
COc1cccc(F)c1-c1cc2c(/C=C/c3ccc(Br)cc3)n[nH]c2cn1 [Example 116, 3-(4-Bromostyryl)-5-(2-fluoro-6-methoxyphenyl)-1H-pyrazolo[3,4-c]pyridine]	≤ 100 nM
CNCc1cc(C)c(-c2cc3c(-c4cccc(N5CCOCC5)n4)n[nH]c3cn2)c(F)c1 [Example 117, 1-(3-Fluoro-5-methyl-4-(3-(6-morpholinopyridin-2-yl)-1H-pyrazolo[3,4-c]pyridin-5-yl)phenyl)-N-methylmethanamine]	≤ 100 nM
